Test results taken from US20240101541A1 (priority 2020, published 2024).

Experiments:
[1] = molecular target: SARS-CoV-2 3CLpro (Severe acute respiratory syndrome coronavirus 2, UniProt P0DTD1); assay: biochemical
[2] = system: SARS-CoV-2; assay: microbe, parasite or virus in culture; assay type: cell-based; details: Severe acute respiratory syndrome coronavirus 2, read-out: Antiviral EC50

## O=C(Cn1ccc2ccccc21)N(Cc1ccsc1)c1ccc(-c2ccccc2)cc1
[1]
  IC50: > 100 µM
[2]
  EC50: > 100 µM

## O=C(Cn1nnc2ccccc21)N(Cc1ccsc1)c1ccc(-c2ccccc2)cc1
[2]
  EC50: 50 to 100 µM

## O=C(Cn1nnc2ccccc21)N(Cc1ccc(-c2ccccc2)cc1)Cc1ccsc1
[1]
  IC50: > 100 µM
[2]
  EC50: 5 to 50 µM

## O=C(Cn1nnc2ccccc21)N(Cc1ccc(-c2ccccn2)cc1)Cc1ccsc1
[1]
  IC50: 50 to 100 µM
[2]
  EC50: > 100 µM
